According to US20160130234A1, “PHARMACEUTICAL COMPOSITIONS BASED ON PHOTOCHEMICALLY STABLE SILVER COMPLEXES, CHLOREXIDINE AND CATIONIC SURFACTANTS” (PAVIA FARMACEUTICI S.R.L., priority 2013, published 2016):

How the values were obtained:
[1] = test system: Staphylococcus epidermidis; conditions: cited from earlier work
[2] = test system: Staphylococcus aureus (ATCC-6538) and Pseudomonas aeruginosa (ATCC-15442); assay: quantitative suspension test for bactericidal activity, UNI EN 1272:2009; assay type: cell-based
Description: The bactericidal activity was tested on aqueous solutions of the complex of Example 1, (i.e. where the ligand L coordinated to the silver ion is the 2-Mercapto-5-benzimidazolesulfonic acid sodium salt).
The bactericidal activity tests were carried out according to UNI EN 1272:2009 and UNI EN 13697:2001 standards, which makes reference to chemical disinfectants and antiseptics, by using the following test organism: Staphylococcus aureus (ATCC-6538), as representative of Gram-positive bacteria and Pseudomonas aeruginosa (ATCC-15442), as representative of Gram-negative bacteria.

sepsis = conditions: burns treated with silver nitrate; decreased from 60%; cited from earlier work

Molecule	development of resistance by Staphylococcus epidermidis [1]	antimicrobial activity after exposure to ambient light ([2]; after exposure to ambient light, reduction of Ag^+ to Ag^∘)	reduction of bacterial count compared with the silver complex ([2]; solution of comparable concentration)	number of deaths that were a result of sepsis (sepsis) [%]
[H]/N=C(\N/C(=N/[H])NCCCCCCNC(=N)NC(=N)Nc1ccc(Cl)cc1)Nc1ccc(Cl)cc1 [chlorhexidine]	no evidence of resistance was observed			
O=[N+]([O-])[O-].[Ag+] [Silver Nitrate]		lose the antimicrobial activity	analogously	28
polyhexametylene biguanide	no evidence of resistance was observed			
